# Data from ChEMBL document CHEMBL5500339, “4-Hydroxy-2-pyridone derivatives with antitumor activity produced by mangrove endophytic fungus Talaromyces sp. CY-3” (Eur J Med Chem, 2024).
# Calls of active or inactive are those of the source. No cut-off for these calls is given here.
# How the values were obtained:
# A549 [1] = test: Cytotoxicity against human A549 cells assessed as reduction in cell viability incubated for 48 hrs by MTT assay; format: functional, cell-based; details: A549, 48 h
# CT26 = test: Cytotoxicity against mouse CT26 cells assessed as reduction in cell viability incubated for 48 hrs by MTT assay; format: functional, cell-based; details: CT26, 48 h
# [2] = Cytotoxicity against mouse Lewis lung carcinoma cell line assessed as reduction in cell viability incubated for 48 hrs by MTT assay; format: functional, cell-based
# A549 [3] = test: Inhibition of colony formation in human A549 cells at 20 uM incubated for 7 days by crystal violet staining analysis; format: functional, cell-based; details: time 7.0 day
# A549 [4] = test: Antiproliferative activity against human A549 cells assessed as inhibition of cell growth at 10 uM incubated for 24 hrs by MTT assay; format: functional, cell-based
# A549 [5] = test: Antiproliferative activity against human A549 cells assessed as inhibition of cell growth at 20 uM incubated for 24 hrs by MTT assay; format: functional, cell-based
# NCI-H1703 [6] = test: Antiproliferative activity against human NCI-H1703 cells assessed as inhibition of cell growth at 20 uM incubated for 24 hrs by MTT assay; format: functional, cell-based
# NCI-H1703 [7] = test: Induction of cell cycle arrest in human NCI-H1703 cells assessed as accumulation of cells at G1/G0 phase at 5 uM incubated for 24 hrs by flow cytometric analysis (reference value: 42.06 %); format: functional
# NCI-H1703 [8] = test: Induction of cell cycle arrest in human NCI-H1703 cells assessed as accumulation of cells at S phase at 5 uM incubated for 24 hrs by flow cytometric analysis (reference value: 28.06 %); format: functional
# NCI-H1703 [9] = test: Induction of cell cycle arrest in human NCI-H1703 cells assessed as accumulation of cells at G1/G0 phase at 10 uM incubated for 24 hrs by flow cytometric analysis (reference value: 42.06 %); format: functional
# NCI-H1703 [10] = test: Induction of cell cycle arrest in human NCI-H1703 cells assessed as downregulation of CDK6 protein expression incubated for 24 hrs by Western blotting analysis; format: functional, cell-based
# NCI-H1703 [11] = test: Induction of cell cycle arrest in human NCI-H1703 cells assessed as downregulation of Rb phosphorylation at Ser807/811 residue at 5 uM incubated for 24 hrs by Western blotting analysis; format: functional, cell-based
# A549 [12] = test: Induction of cell cycle arrest in human A549 cells assessed as downregulation of total Rb protein level at 10 uM incubated for 24 hrs by Western blotting analysis; format: functional, cell-based
# NCI-H1703 [13] = test: Induction of cell cycle arrest in human NCI-H1703 cells assessed as downregulation of total Rb protein level at 5 uM incubated for 24 hrs by Western blotting analysis; format: functional, cell-based
smiles,measurement,setting,value
C/C=C/[C@@H]1[C@H]2C[C@@H](C)CC[C@@H]2C(C)=C[C@H]1C(=O)c1c(O)c(-c2ccc(O)cc2)c[nH]c1=O [ILICICOLIN H],IC50,A549 [1],7.01 µM
same,IC50,CT26,19.5 µM
same,IC50,[2],5.78 µM
same,inhibition,A549 [3],Active
same,Activity,A549 [4],Active
same,Activity,A549 [5],Active
same,Activity,NCI-H1703 [6],Active
same,Activity,NCI-H1703 [7],50.13%
same,Activity,NCI-H1703 [8],23.26%
same,Activity,NCI-H1703 [9],56.04%
same,Activity,NCI-H1703 [10],Dose-Dependent Effect
same,Activity,NCI-H1703 [11],Active
same,Activity,A549 [12],inactive
same,Activity,NCI-H1703 [13],inactive
